Patent US20260007634A1, “PHARMACEUTICAL COMPOSITIONS FOR THE TREATMENT OF ALLERGIC DISEASES” (KINKI UNIVERSITY, priority 2022, published 2026)

Assays:
NIK = molecular target: T1, NIK (Mus musculus, UniProt Q9WUL6); assay: BAFF-induced NIK activation in B cells (Western blotting, phospho-NIK); format: cell-based; conditions: for phospho-NIK band (immunoblotting): 100 ng/mL BAFF 1 h after 23 h compound, 100 μM mangiferin, 20 μM 1,3,5,6-tetrahydroxyxanthone, 10 μM others; for inhibition of NIK activity compared with mangiferin: general statement in the description, referring to the examples
T1 construct: Proteins were extracted with cell lysate and used as samples; endogenous in cells; host or cells: primary splenic B cells from 6-week-old male Balb/c mice
Experimental: (§1) Spleens were harvested from 6-week-old male Balb/c mice and B cells were isolated. After isolation, the cells were seeded in […] dish and cultured in RPMI 1640 medium for 1 day and used as control. In addition, B cells were seeded into 100 mm^2 dish, and after 1 day of culture, 100 ng/mL BAFF was added and cultured for 1 h. Furthermore, B cells were seeded in […] dish, and after 1 day of culture, 100 μM mangiferin, 10 μM mangiferin 8a, 10 μM norathyriol, 20 μM 1,3,5,6-tetrahydroxyxanthone, 10 μM xanthohydrol, 10 μM of α-mangostin, and 10 μM of γ-mangostin were added to B cells, and after 23 h, 100 ng/mL BAFF was added to each, and the cells were incubated for 1 h. All were incubated at 37° C. and 5% CO2.
(§2) Proteins were extracted with cell lysate and used as samples. Each sample was transferred to a PVDF membrane after SDSPAGE and assayed with anti-phospho-NIK, anti-NIK, anti-NF-κB p52, anti-NF-κB p65 and anti-Lamin antibodies.
(§3) The antibody species is indicated in the vertical direction. Specifically, in the case of anti-phospho-NIK antibody (described as “Phospho-NIK”), anti-NIK antibody (described as “NIK”), anti-NF-κB p52 antibody (described as “NF-κB p52 nuclear”), anti-NF-κB p65 antibody (described as “NF-κB p65 nuclear”) and anti-Lamin antibody (described as “Lamin”).

NF-κB p52 = assay: BAFF-stimulated B cells, nuclear NF-κB p52 (Western blotting); format: cell-based, mouse; conditions: vs 100 ng/mL BAFF; 100 μM mangiferin, 20 μM 1,3,5,6-tetrahydroxyxanthone, 10 μM others
Experimental: as §1, §2, §3

[1] = test system: B cells collected from mice; assay: BAFF-induced differentiation into plasma cells (CD138 flow cytometry); format: cell-based, mouse; conditions: 100 ng/mL BAFF, 10 days; 100 μM mangiferin, 20 μM 1,3,5,6-tetrahydroxyxanthone, 10 μM others; vs BAFF-added group
Experimental: (§4) B cells collected from mice were cultured in RPMI 1640 medium for 1 day. Then, 100 μM mangiferin, 10 μM mangiferin 8a, 10 μM norathyriol, 20 μM 1,3,5,6-tetrahydroxyxanthone, 10 μM xanthohydrol, 10 μM α-mangostin, 10 μM of γ-mangostin were added to B cell, and after 1 day of culture, 100 ng/mL of BAFF was added, followed by 10 days of culture. After 10 days of culture, cells were stained with anti-CD138 antibody, a marker of plasma cells, and CD138 expression was measured using BD LSRFortessa.
In all figures, the horizontal axis represents the expression level of CD138 and the vertical axis represents the number of cells.

[2] = test system: B cells collected from mice; assay: BAFF-induced differentiation into mature B cells (IgM/IgD flow cytometry); format: cell-based, mouse; conditions: 100 ng/mL BAFF, 10 days, 100 μM mangiferin, 20 μM 1,3,5,6-tetrahydroxyxanthone, 10 μM others; for population IgM positive and IgD positive (mature B cells): control 0, BAFF only 45.6; for population IgM positive and IgD negative (immature B cells): control 0.529, BAFF only 42.3; for population IgM negative and IgD negative (pre-B cells): control 99.5, BAFF only 11.7
Experimental: as §4, with “anti-IgM and anti-IgD antibodies, markers” for “anti-CD138 antibody, a marker”, “B” for “plasma”, “the” for “CD138”, “expression of IgM and IgD” for “expression”, “LSRFortessa. Note that IgM negative and IgD negative indicates pre-B cells, IgM positive and IgD negative indicates immature B cells, and IgM positive and IgD positive indicates mature B cells.” for “LSRFortessa.”

IL-4 = assay: Auricular tissue IL-4 ELISA, atopic dermatitis mice; format: in vivo, mouse; conditions: day 7, topical application, control 56, vehicle 152
Experimental: (§5) MC903 at 2 nM was applied to the right auricle of a 6-week-old male Balb/c (Japan SLC Inc.). Starting 8 h later, 5% norathyriol aqueous solution (1 mL of ethanol containing […] of norathyriol), betamethasone ointment, and delgocitinib ointment were applied to the auricle for 7 days. The measurement of auricular skin swelling was calculated by calipers. The day on which the first application of the compound was made was defined as day 0. Betamethasone and delgocitinib are currently in clinical use in atopic dermatitis and were used as control drugs in this example.
The mouse IL-4 ELISA kit (R&D) was used for this measurement.

IL-5 = assay: Auricular tissue IL-5 ELISA, atopic dermatitis mice; format: in vivo, mouse; conditions: day 7, topical application, control 15, vehicle 32
Experimental: as §5
The mouse IL-5 ELISA kit (R&D) was used for this measurement.

IgE antibody = assay: Serum IgE antibody ELISA, atopic dermatitis mice; format: in vivo, mouse; conditions: day 7, topical application, control 1214, vehicle (MC903) 2588
Experimental: as §5
Serum was collected from mice on day 7 in Example 1, and IgE antibody production was measured by enzyme-linked immunosorbent assay (ELISA). This assay was performed using a mouse IgE antibody ELISA kit (R&D).

TSLP = assay: Auricular tissue TSLP ELISA, atopic dermatitis mice; format: in vivo, mouse; conditions: day 7, topical application, control 317, vehicle 1533
Experimental: as §5
The mouse TSLP ELISA kit (R&D) was used for this measurement.

T1 sequence (Q9WUL6 whole entry): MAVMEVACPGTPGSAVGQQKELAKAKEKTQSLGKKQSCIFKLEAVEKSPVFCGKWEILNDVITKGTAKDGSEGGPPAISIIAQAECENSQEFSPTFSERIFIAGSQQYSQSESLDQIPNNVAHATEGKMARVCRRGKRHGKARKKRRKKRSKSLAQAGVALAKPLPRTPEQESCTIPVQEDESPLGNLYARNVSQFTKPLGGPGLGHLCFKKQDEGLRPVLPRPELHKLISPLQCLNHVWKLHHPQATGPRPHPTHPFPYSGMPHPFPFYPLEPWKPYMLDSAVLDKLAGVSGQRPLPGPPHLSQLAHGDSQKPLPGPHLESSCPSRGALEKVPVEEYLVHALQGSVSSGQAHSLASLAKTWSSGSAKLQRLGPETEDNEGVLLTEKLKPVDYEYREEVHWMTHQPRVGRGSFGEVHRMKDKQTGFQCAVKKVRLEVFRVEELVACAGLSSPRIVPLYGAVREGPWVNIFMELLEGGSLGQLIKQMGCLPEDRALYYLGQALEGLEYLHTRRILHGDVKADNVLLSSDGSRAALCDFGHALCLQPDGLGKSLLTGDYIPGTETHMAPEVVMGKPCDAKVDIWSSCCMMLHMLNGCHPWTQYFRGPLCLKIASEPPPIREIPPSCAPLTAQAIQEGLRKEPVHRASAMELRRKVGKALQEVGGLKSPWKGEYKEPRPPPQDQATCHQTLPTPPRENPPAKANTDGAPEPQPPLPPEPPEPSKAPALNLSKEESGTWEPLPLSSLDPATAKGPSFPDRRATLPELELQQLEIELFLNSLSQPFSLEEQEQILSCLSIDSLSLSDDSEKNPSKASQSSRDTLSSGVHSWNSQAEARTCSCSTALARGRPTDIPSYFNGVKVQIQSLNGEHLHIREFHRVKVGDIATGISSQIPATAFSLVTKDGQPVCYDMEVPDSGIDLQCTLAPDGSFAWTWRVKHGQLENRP

Row | SMILES | phospho-NIK band (immunoblotting) (NIK) | inhibition of NIK activity compared with mangiferin (NIK) | nuclear NF-κB p52 band (immunoblotting) (NF-κB p52) | CD138 expression [1] | population IgM positive and IgD positive (mature B cells) [2] | population IgM positive and IgD negative (immature B cells) [2] | population IgM negative and IgD negative (pre-B cells) [2] | IL-4 secretion (IL-4) | IL-5 secretion (IL-5) | amount of IgE antibody (IgE antibody) | TSLP secretion (TSLP)
1 | COc1c(O)cc2oc3cc(O)c(CC=C(C)C)c(O)c3c(=O)c2c1CC=C(C)C [α-mangostin] | fainter | more inhibition of NIK activity than mangiferin | fainter | significantly decreased CD138 expression | 0.363% | 21.2% | 78.1% |  |  |  | 
2 | C[C@H]1CN(C(=O)CC#N)[C@]12CCN(c1ncnc3[nH]ccc13)C2 [delgocitinib] |  |  |  |  |  |  |  | 159 pg/mL | 33 pg/mL | 1812 ng/mL | 971 pg/mL
3 | OC1c2ccccc2Oc2ccccc21 [xanthohydrol] | fainter | more inhibition of NIK activity than mangiferin | fainter | significantly decreased CD138 expression | 0% | 3.64% | 96.3% |  |  |  | 
4 | C[C@H]1C[C@H]2[C@@H]3CCC4=CC(=O)C=C[C@]4(C)[C@@]3(F)[C@@H](O)C[C@]2(C)[C@@]1(O)C(=O)CO [betamethasone] |  |  |  |  |  |  |  | 45 pg/mL | 8 pg/mL | 1175 ng/mL | 651 pg/mL
5 | O=c1c2cc(O)c(O)cc2oc2cc(O)c([C@@H]3O[C@H](CO)[C@@H](O)[C@H](O)[C@H]3O)c(O)c12 [mangiferin] | fainter |  | fainter | significantly decreased CD138 expression | 0% | 3.24% | 95.8% |  |  |  | 
6 | CC(C)=CCc1c(O)cc2oc3cc(O)c(O)c(CC=C(C)C)c3c(=O)c2c1O [γ-mangostin] | fainter | more inhibition of NIK activity than mangiferin | fainter | significantly decreased CD138 expression | 0.561% | 19.7% | 79.7% |  |  |  | 
7 | O=c1c2ccc(O)c(O)c2oc2cc(O)cc(O)c12 [1,3,5,6-tetrahydroxyxanthone] | fainter | more inhibition of NIK activity than mangiferin | fainter | significantly decreased CD138 expression | 0% | 2.92% | 96.5% |  |  |  | 
